These results are taken from PMC9329436, “Optimization of the 4-anilinoquin(az)oline scaffold as epidermal growth factor receptor (EGFR) inhibitors for chordoma utilizing a toxicology profiling assay platform” (Scientific Reports, 2022).

Holding throughout (assay): 33PanQinase activity assay
What all share (type): biochemical

For one test, the target named is SLK (Homo sapiens, UniProt Q9H2G2). To be noted: for SLK inhibition: 10 μM; for Residual activity, SLK: kinase SLK, singlicate. An excerpt:
(§1) Table S4. Profiling of two compounds at two concentrations against 320 wild-type protein kinases; singlicate measurement; Residual activities (% of control).

Another test deals with ERBB4 (Homo sapiens, UniProt Q15303). To be noted: for Residual activity: singlicate.
Text: as §1

For a further test, the target named is T1, PRKG2 (Homo sapiens, UniProt Q13237).
T1 sequence (Q13237 1-762): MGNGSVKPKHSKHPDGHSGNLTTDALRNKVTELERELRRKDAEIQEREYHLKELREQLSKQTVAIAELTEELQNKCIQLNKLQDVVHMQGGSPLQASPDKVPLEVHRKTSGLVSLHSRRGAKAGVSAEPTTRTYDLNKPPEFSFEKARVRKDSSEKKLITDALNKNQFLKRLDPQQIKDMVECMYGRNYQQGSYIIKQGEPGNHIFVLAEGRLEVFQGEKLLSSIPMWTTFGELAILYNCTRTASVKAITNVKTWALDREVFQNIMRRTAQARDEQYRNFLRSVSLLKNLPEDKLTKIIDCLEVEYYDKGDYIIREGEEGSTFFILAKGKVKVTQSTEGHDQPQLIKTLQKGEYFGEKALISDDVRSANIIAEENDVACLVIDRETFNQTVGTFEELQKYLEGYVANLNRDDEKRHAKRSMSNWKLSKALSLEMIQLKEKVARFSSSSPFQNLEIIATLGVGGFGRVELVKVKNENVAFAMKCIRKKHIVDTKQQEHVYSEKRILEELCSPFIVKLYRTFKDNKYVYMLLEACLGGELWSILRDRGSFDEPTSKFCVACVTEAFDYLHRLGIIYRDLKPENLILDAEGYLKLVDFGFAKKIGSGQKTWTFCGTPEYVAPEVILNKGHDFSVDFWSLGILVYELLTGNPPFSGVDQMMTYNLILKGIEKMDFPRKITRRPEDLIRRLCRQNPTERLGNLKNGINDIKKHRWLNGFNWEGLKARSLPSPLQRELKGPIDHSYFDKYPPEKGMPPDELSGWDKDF
To be noted: for Residual activity, PRKG2: kinase PRKG2, singlicate.
Text: as §1

The target in the next test is T2, Aurora-C (Homo sapiens, UniProt Q9UQB9).
T2 sequence (Q9UQB9 1-309): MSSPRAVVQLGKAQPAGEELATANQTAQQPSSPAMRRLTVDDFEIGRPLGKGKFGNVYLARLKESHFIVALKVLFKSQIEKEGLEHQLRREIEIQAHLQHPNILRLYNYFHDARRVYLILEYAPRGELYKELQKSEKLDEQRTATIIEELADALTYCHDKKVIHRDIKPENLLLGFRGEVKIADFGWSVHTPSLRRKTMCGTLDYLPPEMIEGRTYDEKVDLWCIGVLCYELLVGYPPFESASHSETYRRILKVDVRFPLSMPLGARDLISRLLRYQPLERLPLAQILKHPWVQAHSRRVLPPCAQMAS
To be noted: for Residual activity: Aurora-C, singlicate.
Text: as §1

The target of another test is EGFR (Homo sapiens, UniProt P00533). The following applies: for Residual activity: EGF-R, singlicate.
Text: as §1

Another test has as its target LCK (Homo sapiens, UniProt P06239). The following applies: for Residual activity: LCK, singlicate.
Text: as §1

Another test deals with T3, EPHA6 (Homo sapiens, UniProt Q9UF33).
T3 sequence (Q9UF33 23-1036): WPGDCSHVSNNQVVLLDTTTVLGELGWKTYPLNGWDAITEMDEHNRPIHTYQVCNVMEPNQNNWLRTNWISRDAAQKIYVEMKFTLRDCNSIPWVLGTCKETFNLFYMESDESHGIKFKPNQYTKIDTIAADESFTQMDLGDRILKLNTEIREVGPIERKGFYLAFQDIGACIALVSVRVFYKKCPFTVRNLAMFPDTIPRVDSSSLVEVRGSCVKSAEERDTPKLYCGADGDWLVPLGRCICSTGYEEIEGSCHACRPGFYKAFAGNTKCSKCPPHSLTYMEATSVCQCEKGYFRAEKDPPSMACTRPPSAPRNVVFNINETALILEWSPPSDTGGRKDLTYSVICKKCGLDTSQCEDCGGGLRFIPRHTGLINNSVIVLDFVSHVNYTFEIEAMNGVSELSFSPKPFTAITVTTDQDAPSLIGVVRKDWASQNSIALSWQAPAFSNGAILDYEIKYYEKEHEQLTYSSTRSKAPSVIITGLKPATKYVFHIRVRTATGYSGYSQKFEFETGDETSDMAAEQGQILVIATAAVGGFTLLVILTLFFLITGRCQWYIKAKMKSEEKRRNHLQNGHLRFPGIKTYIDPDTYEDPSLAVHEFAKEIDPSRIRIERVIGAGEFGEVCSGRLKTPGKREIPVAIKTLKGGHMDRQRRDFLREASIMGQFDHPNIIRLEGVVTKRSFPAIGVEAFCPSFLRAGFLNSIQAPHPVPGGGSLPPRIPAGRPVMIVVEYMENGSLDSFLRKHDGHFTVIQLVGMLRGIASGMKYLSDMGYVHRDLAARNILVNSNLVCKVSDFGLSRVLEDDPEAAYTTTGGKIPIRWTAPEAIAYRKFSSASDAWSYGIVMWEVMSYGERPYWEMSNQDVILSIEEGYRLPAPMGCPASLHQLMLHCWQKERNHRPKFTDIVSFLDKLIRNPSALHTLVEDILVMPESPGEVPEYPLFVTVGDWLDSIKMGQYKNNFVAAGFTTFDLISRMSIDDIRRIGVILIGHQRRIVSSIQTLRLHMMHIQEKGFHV
To be noted: for Residual activity: singlicate.
Text: as §1

Another test has as its target MINK1 (Homo sapiens, UniProt Q8N4C8). The following applies: for Residual activity: singlicate.
Text: as §1

Where only a bound is given, the exact number is not on record here.

Sequence of ERBB4 (Q15303 26-1308): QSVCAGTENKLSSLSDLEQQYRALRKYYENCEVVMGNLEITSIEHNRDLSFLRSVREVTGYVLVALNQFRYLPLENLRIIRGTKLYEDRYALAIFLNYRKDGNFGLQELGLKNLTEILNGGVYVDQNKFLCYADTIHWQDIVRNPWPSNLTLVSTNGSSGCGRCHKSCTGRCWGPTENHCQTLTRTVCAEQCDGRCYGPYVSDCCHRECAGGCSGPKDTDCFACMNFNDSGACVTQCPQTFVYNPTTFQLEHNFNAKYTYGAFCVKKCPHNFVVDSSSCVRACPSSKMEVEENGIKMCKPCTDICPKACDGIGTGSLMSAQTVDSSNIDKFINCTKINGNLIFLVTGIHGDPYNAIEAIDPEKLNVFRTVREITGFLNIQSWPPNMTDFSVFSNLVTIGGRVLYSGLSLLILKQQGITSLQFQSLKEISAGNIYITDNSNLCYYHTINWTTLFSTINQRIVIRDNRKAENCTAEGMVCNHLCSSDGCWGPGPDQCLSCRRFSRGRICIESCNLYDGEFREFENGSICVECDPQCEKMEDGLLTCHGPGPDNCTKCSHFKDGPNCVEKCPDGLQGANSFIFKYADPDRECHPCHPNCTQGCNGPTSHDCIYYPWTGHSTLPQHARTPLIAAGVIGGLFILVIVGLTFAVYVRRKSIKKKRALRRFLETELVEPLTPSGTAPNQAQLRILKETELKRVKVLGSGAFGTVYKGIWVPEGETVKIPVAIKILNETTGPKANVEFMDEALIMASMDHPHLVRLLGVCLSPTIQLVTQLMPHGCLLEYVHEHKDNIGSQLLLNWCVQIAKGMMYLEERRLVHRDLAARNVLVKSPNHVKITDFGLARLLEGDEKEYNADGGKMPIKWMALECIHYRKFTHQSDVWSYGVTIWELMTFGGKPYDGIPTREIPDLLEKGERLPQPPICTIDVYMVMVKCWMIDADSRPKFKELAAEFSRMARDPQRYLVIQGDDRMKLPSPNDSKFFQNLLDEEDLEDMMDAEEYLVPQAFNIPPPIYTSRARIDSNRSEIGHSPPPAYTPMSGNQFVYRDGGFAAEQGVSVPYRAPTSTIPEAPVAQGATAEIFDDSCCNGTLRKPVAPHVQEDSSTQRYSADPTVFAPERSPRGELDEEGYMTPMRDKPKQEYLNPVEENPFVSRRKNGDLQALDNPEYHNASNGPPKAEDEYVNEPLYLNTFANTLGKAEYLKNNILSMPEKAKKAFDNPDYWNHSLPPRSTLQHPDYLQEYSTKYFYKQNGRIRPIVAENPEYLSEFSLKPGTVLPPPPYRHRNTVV
Sequence of LCK (P06239 whole entry): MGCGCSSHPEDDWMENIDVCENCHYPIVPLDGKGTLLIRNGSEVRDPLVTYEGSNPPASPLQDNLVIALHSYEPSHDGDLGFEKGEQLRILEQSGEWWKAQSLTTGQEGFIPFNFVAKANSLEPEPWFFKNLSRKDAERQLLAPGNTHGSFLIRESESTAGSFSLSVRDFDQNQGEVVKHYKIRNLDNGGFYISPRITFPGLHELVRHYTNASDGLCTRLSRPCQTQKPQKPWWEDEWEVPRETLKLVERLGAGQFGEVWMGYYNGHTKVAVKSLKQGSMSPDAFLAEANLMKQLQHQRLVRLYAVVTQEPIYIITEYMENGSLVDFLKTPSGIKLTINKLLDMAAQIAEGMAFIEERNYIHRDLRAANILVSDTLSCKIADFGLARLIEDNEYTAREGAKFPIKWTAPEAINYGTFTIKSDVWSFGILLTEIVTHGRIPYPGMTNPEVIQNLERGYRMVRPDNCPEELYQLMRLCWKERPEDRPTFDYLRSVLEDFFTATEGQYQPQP
Sequence of EGFR (P00533 25-1210): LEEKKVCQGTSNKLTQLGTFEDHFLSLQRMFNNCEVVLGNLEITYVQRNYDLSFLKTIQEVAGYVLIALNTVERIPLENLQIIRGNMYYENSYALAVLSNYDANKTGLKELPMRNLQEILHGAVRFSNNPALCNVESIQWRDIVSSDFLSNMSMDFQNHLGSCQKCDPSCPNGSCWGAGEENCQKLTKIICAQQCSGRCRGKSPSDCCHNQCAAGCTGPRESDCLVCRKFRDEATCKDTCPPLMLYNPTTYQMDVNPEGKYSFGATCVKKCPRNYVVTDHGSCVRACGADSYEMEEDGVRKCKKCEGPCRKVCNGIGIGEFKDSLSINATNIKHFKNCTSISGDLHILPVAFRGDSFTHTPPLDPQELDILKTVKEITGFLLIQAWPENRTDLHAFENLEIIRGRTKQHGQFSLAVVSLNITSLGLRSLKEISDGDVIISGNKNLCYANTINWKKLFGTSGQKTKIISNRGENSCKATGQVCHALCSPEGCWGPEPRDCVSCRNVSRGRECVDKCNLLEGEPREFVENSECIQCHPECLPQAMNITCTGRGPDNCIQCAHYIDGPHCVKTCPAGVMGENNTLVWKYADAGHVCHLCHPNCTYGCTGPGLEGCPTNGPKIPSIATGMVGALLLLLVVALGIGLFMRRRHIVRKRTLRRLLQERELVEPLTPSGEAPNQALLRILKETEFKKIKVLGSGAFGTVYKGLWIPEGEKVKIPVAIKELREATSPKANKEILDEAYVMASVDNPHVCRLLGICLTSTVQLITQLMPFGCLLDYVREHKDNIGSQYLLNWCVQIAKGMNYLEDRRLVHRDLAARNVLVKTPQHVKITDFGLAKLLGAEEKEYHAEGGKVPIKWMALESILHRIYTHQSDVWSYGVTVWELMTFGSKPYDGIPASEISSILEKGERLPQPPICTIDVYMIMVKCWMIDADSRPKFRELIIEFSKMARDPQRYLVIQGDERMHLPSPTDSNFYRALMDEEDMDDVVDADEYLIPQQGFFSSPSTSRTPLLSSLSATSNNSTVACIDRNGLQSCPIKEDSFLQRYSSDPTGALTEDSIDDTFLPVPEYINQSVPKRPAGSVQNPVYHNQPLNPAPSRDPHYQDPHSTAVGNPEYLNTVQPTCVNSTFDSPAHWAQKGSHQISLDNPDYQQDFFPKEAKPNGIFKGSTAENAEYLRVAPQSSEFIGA
Sequence of SLK (Q9H2G2 whole entry): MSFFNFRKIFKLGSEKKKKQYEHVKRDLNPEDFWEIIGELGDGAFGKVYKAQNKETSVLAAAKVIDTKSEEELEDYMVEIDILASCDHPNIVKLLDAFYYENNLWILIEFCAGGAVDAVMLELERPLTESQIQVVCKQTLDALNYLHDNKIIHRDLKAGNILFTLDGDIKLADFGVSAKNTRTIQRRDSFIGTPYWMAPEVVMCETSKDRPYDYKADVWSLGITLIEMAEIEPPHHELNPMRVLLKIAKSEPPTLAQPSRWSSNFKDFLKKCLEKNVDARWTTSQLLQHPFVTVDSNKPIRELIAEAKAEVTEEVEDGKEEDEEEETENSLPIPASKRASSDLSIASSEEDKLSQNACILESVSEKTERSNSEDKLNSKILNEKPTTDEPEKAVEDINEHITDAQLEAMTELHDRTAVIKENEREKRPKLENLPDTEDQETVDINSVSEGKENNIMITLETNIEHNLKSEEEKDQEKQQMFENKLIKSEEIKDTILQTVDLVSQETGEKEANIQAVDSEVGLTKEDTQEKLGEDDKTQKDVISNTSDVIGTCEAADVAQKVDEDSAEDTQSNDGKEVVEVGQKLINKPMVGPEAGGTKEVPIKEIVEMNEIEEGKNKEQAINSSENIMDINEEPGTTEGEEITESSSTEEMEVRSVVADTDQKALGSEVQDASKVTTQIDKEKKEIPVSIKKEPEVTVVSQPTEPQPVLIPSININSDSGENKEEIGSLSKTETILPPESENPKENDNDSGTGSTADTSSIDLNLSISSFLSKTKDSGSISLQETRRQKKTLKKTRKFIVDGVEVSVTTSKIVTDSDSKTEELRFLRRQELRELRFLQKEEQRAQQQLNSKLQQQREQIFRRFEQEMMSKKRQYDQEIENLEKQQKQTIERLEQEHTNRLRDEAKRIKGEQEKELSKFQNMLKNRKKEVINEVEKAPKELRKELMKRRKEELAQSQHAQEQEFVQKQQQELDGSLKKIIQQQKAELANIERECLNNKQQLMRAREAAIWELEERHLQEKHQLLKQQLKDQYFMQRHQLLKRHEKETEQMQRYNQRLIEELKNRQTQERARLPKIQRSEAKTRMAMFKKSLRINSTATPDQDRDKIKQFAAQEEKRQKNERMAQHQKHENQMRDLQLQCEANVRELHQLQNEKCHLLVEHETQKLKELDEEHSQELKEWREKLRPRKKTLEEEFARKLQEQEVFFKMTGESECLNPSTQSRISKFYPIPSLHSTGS

At SLK, `C#Cc1cc(Nc2ncnc3cc(OC)c(OC)cc23)ccc1Cl` [Compound 45] had an SLK inhibition greater than 50%. Further, the results for the “Residual activity, SLK” value at SLK (assay conc. 1.0E-06 M) and at SLK (assay conc. 1.0E-07 M) were 18 % of control and 76 % of control, respectively. The ERBB4 inhibition result on ERBB4 (1 μM) is “moderate inhibition”. In addition, the Residual activity was 7 % of control at ERBB4 (ERBB4, 1.0E-06 M); 34 % of control on ERBB4 (ERBB4, 1.0E-07 M); 85 % of control at Aurora-C (1.0E-06 M); 98 % of control at Aurora-C (1.0E-07 M); 0 % of control at EGFR (1.0E-06 M); 2 % of control on EGFR (1.0E-07 M). Besides, the Residual activity at LCK (1.0E-06 M) is reported as 36 % of control; on LCK (1.0E-07 M) it was 94 % of control; on EPHA6 (EPHA6, 1.0E-06 M), 35 % of control; at EPHA6 (EPHA6, 1.0E-07 M), 89 % of control; on MINK1 (MINK1, 1.0E-06 M), 29 % of control; at MINK1 (MINK1, 1.0E-07 M) it was 86 % of control. The “Residual activity, PRKG2” value at PRKG2 (assay conc. 1.0E-06 M) is recorded as 80 % of control; on PRKG2 (assay conc. 1.0E-07 M), 118 % of control. Further, the Aurora-C inhibition on Aurora-C (10 μM) was greater than 50%. Also, the EGFR inhibition on EGFR (1 μM) and at EGFR (10 μM) was greater than 50% in each case. In addition, the LCK inhibition at LCK (10 μM) was greater than 50%. At EPHA6 (10 μM), this molecule yielded an EPHA6 inhibition greater than 50%. The same molecule registered an MINK1 inhibition on MINK1 (10 μM) greater than 50%.

`C#Cc1cc(Nc2ncnc3cc(I)ccc23)ccc1Cl` [Compound 41] came in with an SLK inhibition on SLK greater than 50%. Besides, the “Residual activity, SLK” value at SLK (assay conc. 1.0E-06 M) was 32 % of control; at SLK (assay conc. 1.0E-07 M), 67 % of control. In addition, the ERBB4 inhibition on ERBB4 (10 μM) is given as greater than 50%. Further, the Residual activity is listed as 44 % of control at ERBB4 (ERBB4, 1.0E-06 M); 92 % of control on ERBB4 (ERBB4, 1.0E-07 M); 70 % of control at Aurora-C (1.0E-06 M); 89 % of control on Aurora-C (1.0E-07 M); 8 % of control at EGFR (1.0E-06 M); 28 % of control at EGFR (1.0E-07 M). Further, the Residual activity at LCK (1.0E-06 M) was 59 % of control; at LCK (1.0E-07 M), 78 % of control; at EPHA6 (EPHA6, 1.0E-06 M) it was 75 % of control; at EPHA6 (EPHA6, 1.0E-07 M), 94 % of control; on MINK1 (MINK1, 1.0E-06 M), 54 % of control; on MINK1 (MINK1, 1.0E-07 M), 64 % of control. Also, the PRKG2 inhibition at PRKG2 (10 μM) was greater than 50%. Besides, the “Residual activity, PRKG2” value on PRKG2 (assay conc. 1.0E-06 M) was 20 % of control; on PRKG2 (assay conc. 1.0E-07 M) it was 100 % of control. The EGFR inhibition on EGFR (1 μM) and at EGFR (10 μM) was greater than 50% throughout.
